# Tests used:
# [1] = target: T1, VprBP (Homo sapiens, UniProt Q9Y4B6); assay: In vitro kinase assay, VprBP (recombinant VprBP and H2A; kinase panel); assay type: biochemical; design: Inhibition of VprBP and H2AT120p in in vitro kinase assay (library screen): dose or concentration left out as unconfirmed
# T1 construct: His (N); made in house; host or cells: Sf9 insect cells (baculovirus)
# Description: Recombinant mononucleosomes and nucleosome arrays were reconstituted using recombinant histone octamers as recently described (Jaskelioff, M. et al. (2000) Mol. Cell. Biol. 20:3058-3068; Robinson, P. J. et al. (2008) J. Mol. Biol. 381:816-825). For kinase assays, recombinant VprBP was incubated with free histones ([…]) or reconstituted nucleosomes ([…]) in kinase buffer (50 mM Tris-HCl [pH 7.5], 20 mM EGTA, 10 mM MgCl2, 1 mM DTT, and 1 mM b-glycerophosphate) containing 10 mCi of [g-32P] ATP and 4 mM ATP for 30 min at 30_C. Proteins from each reaction were separated by SDS-PAGE, Coomassie blue stained, dried, and visualized by autoradiography. To create VprBP inhibitors, a collection of 5,000 compounds was screened in the same kinase assays at a final concentration […]. In vitro transcription assays were as described (Kim, K. et al. (2012) Mol. Cell. Biol. 32:783-796), except that G5ML-601 nucleosome arrays (100 ng) and Gal4-VP16 (15 ng) were used for the reactions. Recombinant VprBP (25 or 50 ng) and ATP (10 mM) were added before p300 (20 ng) and AcCoA (10 mM).
# [2] = target: AKT1 (Homo sapiens, UniProt P31749); assay: Kinase selectivity panel; assay type: biochemical
# [3] = target: AKT3 (Homo sapiens, UniProt Q9Y243); assay: Kinase selectivity panel; assay type: biochemical
# [4] = target: ATM (Homo sapiens, UniProt Q13315); assay: Kinase selectivity panel; assay type: biochemical
# [5] = target: ATR (Homo sapiens, UniProt Q13535); assay: Kinase selectivity panel; assay type: biochemical
# [6] = target: AURKB (Homo sapiens, UniProt Q96GD4); assay: Kinase selectivity panel; assay type: biochemical
# [7] = target: BCK; assay: Kinase selectivity panel; assay type: biochemical, human
# [8] = target: BUB1 (Homo sapiens, UniProt O43683); assay: Kinase selectivity panel; assay type: biochemical
# [9] = target: CDK2 (Homo sapiens, UniProt P24941); assay: Kinase selectivity panel; assay type: biochemical
# [10] = target: CDK18 (Homo sapiens, UniProt Q07002); assay: Kinase selectivity panel; assay type: biochemical
# [11] = target: CHK2 (Homo sapiens, UniProt O96017); assay: Kinase selectivity panel; assay type: biochemical
# [12] = target: CSK1E (Homo sapiens, UniProt P49674); assay: Kinase selectivity panel; assay type: biochemical
# [13] = target: DNAPK (Homo sapiens, UniProt P78527); assay: Kinase selectivity panel; assay type: biochemical
# [14] = target: EEF2K (Homo sapiens, UniProt O00418); assay: Kinase selectivity panel; assay type: biochemical
# [15] = target: PKM2 (Homo sapiens, UniProt P14618); assay: Kinase selectivity panel; assay type: biochemical
# [16] = target: PKN2 (Homo sapiens, UniProt Q16513); assay: Kinase selectivity panel; assay type: biochemical
# [17] = target: PRKCD (Homo sapiens, UniProt Q05655); assay: Kinase selectivity panel; assay type: biochemical
# [18] = target: PLK1 (Homo sapiens, UniProt P53350); assay: Kinase selectivity panel; assay type: biochemical
# [19] = target: PLK2 (Homo sapiens, UniProt Q9NYY3); assay: Kinase selectivity panel; assay type: biochemical
# [20] = target: RSK2 (Homo sapiens, UniProt P51812); assay: Kinase selectivity panel; assay type: biochemical
# [21] = target: RSK3 (Homo sapiens, UniProt Q15349); assay: Kinase selectivity panel; assay type: biochemical
# [22] = target: STK25 (Homo sapiens, UniProt O00506); assay: Kinase selectivity panel; assay type: biochemical
# [23] = target: STK33 (Homo sapiens, UniProt Q9BYT3); assay: Kinase selectivity panel; assay type: biochemical
# [24] = target: SYK (Homo sapiens, UniProt P43405); assay: Kinase selectivity panel; assay type: biochemical
# [25] = test system: DU145 tumor xenografts; assay: DU145 tumor xenografts in nude mice; assay type: in vivo
# Description: All animal experiments were performed according to protocols approved by the Institutional Animal Care and Use Committee. Tumor xenografts were established by subcutaneous injection of 1 3 107 DU145 cells into 8-weekold female nude mice (n=8). At day 5 after injection, the mice bearing DU145 tumor xenografts were treated with twice-weekly i.p. injections of either DMSO or B32B3 at a dose of 5 mg/kg throughout the duration of the experiment. Tumor dimension was measured by calipers twice a week, and tumor mass was calculated as described (Heo, K. et al. (2012) Oncogene 32:2510-2520). The mice were killed by asphyxiation with CO2, and tumors were excised and weighed 25 day after the cell injection. To analyze the H2AT120p, formalin-fixed and paraffin-embedded sections ([…]) from DU145 tumor xenografts were subject to immunohistochemistry. Animal studies were conducted under approved institutional protocols.
# [26] = Mouse pharmacokinetics of B32B3; assay type: in vivo; details: plasma, dose of 5 mg/kg in mice
# Description: Mouse pharmacokinetic study was carried out using mice (n=5) that were fasted for 12 h prior to and 2 h after dosing with B32B3 (5 mg/kg). Blood samples were collected from orbital sinus at 10, 30, 60, 120, 240, and 480 min post dose. The plasma was separated from blood samples by centrifugation and analyzed in the Agilent 1200 HPLC system coupled to Agilent 6460A QQQ mass spectrophotometer. The plasma concentration-time data were analyzed by noncompartmental analysis using WinNonlin version 4.1 (Pharsight).
# T1 sequence (Q9Y4B6 whole entry): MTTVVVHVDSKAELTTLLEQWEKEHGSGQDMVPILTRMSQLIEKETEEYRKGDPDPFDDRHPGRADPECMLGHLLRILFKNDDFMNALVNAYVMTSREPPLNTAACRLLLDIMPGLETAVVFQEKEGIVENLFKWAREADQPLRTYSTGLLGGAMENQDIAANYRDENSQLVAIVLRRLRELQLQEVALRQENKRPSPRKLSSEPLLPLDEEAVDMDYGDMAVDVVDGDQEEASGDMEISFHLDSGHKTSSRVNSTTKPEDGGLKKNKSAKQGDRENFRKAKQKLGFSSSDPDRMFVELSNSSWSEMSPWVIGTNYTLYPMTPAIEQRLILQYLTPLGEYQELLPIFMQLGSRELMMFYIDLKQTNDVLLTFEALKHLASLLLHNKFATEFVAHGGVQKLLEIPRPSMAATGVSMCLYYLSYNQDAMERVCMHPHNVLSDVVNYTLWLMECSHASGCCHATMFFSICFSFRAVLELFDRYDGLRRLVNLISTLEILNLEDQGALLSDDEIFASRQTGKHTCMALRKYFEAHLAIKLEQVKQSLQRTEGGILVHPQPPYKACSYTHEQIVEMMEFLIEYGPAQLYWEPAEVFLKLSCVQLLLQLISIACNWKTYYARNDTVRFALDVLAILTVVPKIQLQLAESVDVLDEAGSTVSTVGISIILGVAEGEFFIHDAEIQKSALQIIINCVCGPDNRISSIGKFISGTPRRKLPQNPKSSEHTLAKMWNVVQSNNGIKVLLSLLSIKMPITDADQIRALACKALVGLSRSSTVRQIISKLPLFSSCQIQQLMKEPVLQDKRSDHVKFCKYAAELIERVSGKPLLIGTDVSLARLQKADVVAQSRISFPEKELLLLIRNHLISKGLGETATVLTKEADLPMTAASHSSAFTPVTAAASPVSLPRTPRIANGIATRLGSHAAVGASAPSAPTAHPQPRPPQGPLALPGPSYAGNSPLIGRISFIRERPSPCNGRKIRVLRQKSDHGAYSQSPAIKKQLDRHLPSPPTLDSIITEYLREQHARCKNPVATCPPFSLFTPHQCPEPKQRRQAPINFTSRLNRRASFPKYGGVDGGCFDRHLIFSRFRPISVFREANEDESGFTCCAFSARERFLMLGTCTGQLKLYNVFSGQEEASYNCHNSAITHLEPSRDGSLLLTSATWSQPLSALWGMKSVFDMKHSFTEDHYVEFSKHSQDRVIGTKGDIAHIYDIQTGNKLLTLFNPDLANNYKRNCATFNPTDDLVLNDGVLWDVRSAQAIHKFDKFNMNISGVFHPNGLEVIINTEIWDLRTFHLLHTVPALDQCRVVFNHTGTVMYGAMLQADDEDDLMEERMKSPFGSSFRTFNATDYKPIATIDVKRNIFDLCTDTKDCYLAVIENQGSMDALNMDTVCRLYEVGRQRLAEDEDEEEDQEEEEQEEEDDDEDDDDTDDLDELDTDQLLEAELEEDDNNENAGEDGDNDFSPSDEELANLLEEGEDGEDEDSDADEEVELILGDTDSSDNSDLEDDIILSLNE
# Chain of STK25 (O00506 whole entry): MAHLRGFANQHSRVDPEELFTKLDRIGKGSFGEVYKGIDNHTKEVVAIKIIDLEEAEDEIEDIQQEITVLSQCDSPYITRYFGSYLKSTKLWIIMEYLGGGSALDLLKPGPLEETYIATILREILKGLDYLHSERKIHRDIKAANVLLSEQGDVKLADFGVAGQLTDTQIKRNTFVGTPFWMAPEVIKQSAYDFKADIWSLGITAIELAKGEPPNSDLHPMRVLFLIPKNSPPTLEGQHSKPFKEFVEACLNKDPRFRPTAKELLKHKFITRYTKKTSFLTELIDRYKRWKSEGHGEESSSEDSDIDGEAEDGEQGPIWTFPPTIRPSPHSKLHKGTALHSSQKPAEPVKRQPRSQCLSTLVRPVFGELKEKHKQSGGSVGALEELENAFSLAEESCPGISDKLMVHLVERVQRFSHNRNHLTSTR
# Chain of AKT1 (P31749 whole entry): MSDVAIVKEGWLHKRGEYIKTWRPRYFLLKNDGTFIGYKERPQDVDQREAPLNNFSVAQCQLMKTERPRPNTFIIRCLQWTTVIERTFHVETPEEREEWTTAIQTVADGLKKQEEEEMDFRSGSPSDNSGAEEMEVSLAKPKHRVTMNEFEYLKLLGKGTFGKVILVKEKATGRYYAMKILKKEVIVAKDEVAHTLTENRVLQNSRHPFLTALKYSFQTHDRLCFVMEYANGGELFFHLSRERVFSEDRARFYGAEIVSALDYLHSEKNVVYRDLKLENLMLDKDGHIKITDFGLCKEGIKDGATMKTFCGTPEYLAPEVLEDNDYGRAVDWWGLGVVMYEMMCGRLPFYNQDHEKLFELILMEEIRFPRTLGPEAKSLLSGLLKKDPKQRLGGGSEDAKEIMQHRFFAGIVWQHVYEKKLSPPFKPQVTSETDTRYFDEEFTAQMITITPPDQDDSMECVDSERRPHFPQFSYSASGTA
# Chain of PKN2 (Q16513 whole entry): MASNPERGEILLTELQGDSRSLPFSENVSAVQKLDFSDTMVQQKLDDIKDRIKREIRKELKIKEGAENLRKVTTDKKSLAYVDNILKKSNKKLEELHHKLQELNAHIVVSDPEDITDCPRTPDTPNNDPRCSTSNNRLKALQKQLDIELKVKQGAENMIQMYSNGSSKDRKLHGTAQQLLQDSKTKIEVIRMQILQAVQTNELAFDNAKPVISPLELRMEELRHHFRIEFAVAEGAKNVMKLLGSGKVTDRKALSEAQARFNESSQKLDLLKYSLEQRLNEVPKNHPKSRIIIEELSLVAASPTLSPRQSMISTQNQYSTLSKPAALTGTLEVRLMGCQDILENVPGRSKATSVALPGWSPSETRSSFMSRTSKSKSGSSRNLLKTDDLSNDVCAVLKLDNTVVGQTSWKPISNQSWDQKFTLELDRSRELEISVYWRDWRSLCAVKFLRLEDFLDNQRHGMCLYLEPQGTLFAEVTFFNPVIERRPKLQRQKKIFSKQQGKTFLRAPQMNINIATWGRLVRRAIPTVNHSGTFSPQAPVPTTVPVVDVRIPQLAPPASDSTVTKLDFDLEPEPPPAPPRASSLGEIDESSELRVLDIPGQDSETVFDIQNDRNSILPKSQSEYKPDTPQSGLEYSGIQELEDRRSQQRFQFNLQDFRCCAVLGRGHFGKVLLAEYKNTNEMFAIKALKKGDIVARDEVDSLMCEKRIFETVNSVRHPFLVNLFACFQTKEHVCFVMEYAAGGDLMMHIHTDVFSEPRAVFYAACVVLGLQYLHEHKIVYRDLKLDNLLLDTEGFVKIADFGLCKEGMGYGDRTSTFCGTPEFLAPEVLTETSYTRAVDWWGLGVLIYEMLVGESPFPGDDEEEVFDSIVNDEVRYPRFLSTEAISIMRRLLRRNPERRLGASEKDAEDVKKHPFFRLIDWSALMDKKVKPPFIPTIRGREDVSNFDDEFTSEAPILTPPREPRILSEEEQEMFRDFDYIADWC
# Chain of AURKB (Q96GD4 whole entry): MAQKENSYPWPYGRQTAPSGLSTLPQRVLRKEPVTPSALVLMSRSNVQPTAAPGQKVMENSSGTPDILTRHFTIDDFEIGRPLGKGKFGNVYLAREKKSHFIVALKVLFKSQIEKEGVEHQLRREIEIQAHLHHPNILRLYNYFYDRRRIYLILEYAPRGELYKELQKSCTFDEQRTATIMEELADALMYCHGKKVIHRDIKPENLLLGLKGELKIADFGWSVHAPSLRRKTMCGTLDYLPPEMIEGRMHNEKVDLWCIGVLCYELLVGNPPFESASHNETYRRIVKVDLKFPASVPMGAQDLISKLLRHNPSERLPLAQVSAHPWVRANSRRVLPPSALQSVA
# Chain of RSK3 (Q15349 whole entry): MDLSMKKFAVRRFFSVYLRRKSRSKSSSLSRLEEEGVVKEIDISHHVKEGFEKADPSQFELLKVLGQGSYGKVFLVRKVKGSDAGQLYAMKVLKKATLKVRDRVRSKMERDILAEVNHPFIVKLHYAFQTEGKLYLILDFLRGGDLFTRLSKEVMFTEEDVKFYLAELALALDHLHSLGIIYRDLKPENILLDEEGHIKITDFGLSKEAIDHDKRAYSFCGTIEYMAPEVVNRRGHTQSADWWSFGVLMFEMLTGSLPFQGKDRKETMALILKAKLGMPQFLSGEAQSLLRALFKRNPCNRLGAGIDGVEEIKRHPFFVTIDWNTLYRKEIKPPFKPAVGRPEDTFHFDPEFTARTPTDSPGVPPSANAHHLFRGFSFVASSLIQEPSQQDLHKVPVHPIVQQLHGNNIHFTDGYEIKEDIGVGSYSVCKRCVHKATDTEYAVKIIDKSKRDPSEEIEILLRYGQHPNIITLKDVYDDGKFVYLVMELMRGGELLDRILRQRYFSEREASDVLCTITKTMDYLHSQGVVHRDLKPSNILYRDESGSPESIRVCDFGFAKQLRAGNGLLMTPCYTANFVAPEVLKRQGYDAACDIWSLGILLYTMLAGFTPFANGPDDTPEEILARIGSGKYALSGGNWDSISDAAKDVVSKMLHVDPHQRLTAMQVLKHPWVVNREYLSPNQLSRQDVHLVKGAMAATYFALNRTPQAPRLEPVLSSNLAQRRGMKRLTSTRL
# Chain of CSK1E (P49674 whole entry): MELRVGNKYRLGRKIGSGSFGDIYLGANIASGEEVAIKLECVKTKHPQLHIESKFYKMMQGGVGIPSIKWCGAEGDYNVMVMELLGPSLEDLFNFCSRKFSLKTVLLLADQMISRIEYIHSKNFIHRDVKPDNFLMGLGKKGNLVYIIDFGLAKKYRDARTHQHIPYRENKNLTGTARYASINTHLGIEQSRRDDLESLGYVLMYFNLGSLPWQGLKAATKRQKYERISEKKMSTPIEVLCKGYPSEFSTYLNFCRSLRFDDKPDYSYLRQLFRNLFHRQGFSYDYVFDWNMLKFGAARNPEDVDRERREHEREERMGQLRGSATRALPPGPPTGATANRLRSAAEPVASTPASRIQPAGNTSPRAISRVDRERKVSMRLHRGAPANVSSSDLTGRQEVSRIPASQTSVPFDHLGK
smiles,measurement,setting,value
c1ccc2c(CNNc3ncnc4sc5c(c34)CCCC5)c[nH]c2c1 [B32B3],Selectivity for VprBP over 33 other kinases,[1]; panel of 33 human kinases,greater than 100 fold
same,IC50,"[1]; panel of 33 human kinases, read-out: IC50 for VprBP as stated in text",0.6 µM
same,Inhibition of VprBP and H2AT120p in in vitro kinase assay (library screen),"[1]; recombinant H2A and VprBP, western blotting with H2AT120p antibody",inhibited VprBP and decreased H2AT120p
same,IC50,[2],> 10 µM
same,IC50,[3],> 10 µM
same,IC50,[4],> 10 µM
same,IC50,[5],> 10 µM
same,IC50,[6],> 10 µM
same,IC50,[7],> 10 µM
same,IC50,[8],> 10 µM
same,IC50,[9],> 10 µM
same,IC50,[10],> 10 µM
same,IC50,[11],> 10 µM
same,IC50,[12],> 10 µM
same,IC50,[13],> 10 µM
same,IC50,[14],> 10 µM
same,IC50,[15],> 10 µM
same,IC50,[16],> 10 µM
same,IC50,[17],> 10 µM
same,IC50,[18],> 10 µM
same,IC50,[19],> 10 µM
same,IC50,[20],8.6 µM
same,IC50,[21],> 10 µM
same,IC50,[22],> 10 µM
same,IC50,[23],> 10 µM
same,IC50,[24],> 10 µM
same,Tumor growth inhibition,"[25]; 5 mg/kg i.p. twice a week over 3 weeks, calculated the day after the last treatment",70%-75%
same,Body weight loss during treatment,[25]; 5 mg/kg i.p. twice weekly,did not cause any significant weight loss
same,Tolerability in mice,[25]; 5 mg/kg i.p. twice weekly,well tolerated
same,Levels of H2AT120p in xenograft tumors (immunohistochemistry),[25]; compared to DMSO-treated controls,greatly decreased
same,Cmax,[26],1000 nM
